How the values were obtained:
BCR-FMS BaF3 cells = molecular target: T1, BCR-FMS BaF3 cells (Homo sapiens, UniProt P07333); assay: BaF3 BCR-FMS cell proliferation assay (ATPlite); type: cell-based; settings: read-out: Inhibition of Cell Proliferation IC50, BCR/BaF3 Fms
T1 construct: fused on or other part: P11274 (Breakpoint cluster region protein)
T1 sequence (P07333 582-910): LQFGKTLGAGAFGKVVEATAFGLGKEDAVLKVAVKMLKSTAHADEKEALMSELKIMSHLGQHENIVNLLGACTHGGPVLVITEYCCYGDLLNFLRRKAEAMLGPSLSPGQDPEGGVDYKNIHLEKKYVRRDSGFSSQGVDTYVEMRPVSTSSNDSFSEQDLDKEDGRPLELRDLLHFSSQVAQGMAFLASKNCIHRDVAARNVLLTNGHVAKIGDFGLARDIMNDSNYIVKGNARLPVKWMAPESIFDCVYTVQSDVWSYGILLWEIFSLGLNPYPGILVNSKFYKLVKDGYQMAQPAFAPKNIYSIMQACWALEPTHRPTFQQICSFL
How it was run: (§1)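 IL-3-free growth, 3-day compound exposure (8-point 1:3 titration, top 10 μM, DMSO control), 37 °C 5% CO2. BaF3 10,000 or MV-4-11 25,000 cells/well, plated overnight beforehand. Read-out ATPlite luminescence vs concentration → IC50.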

BCR-NTRK3 BaF3 cells = molecular target: T2, BCR-NTRK3 BaF3 cells (Homo sapiens, UniProt Q16288); assay: BaF3 BCR-NTRK3 cell proliferation assay (ATPlite); type: cell-based; settings: read-out: Inhibition of Cell Proliferation IC50, BCR/BaF3 TrkC
T2 construct: fused on or other part: P11274 (Breakpoint cluster region protein)
How it was run: as §1

TrkA kinase = TrkA kinase (Homo sapiens, UniProt P04629); assay: TrkA kinase biochemical activity assay (AlphaScreen); settings: 100 μM ATP; read-out: Biochemical Inhibition IC50 TrkA
How it was run: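 IC50 values come from AlphaScreen PY20/streptavidin bead signal versus compound concentration. Kinase reaction: 1 ng/well TrkA, 100 μM ATP, 30 nM biotin-(E4Y)10 substrate, Mn2+-containing Hepes buffer pH 7.5, 5% DMSO, 40 min, room temperature; TrkC assayed by the same approach.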

Sequence of TrkA kinase (P04629 33-796): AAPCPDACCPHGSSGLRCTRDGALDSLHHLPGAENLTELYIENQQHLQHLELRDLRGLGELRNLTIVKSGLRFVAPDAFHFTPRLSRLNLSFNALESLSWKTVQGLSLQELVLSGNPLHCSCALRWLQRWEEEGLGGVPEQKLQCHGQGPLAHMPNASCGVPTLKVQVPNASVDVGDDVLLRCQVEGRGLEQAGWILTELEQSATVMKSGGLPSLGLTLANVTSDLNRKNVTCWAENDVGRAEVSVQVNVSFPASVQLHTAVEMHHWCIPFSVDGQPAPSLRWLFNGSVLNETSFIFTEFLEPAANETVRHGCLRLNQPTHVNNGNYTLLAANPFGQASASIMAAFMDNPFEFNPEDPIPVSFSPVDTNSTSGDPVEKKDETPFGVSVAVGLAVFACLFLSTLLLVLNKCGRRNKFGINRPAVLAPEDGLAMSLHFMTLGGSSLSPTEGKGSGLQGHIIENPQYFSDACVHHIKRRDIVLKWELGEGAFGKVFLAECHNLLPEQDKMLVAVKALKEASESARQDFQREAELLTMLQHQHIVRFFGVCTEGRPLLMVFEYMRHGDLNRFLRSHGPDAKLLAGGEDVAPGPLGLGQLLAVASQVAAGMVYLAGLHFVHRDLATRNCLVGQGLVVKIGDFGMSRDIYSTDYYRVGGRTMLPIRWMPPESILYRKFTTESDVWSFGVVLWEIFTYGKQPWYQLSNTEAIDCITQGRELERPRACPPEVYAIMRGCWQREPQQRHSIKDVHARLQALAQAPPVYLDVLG
T2 sequence (Q16288 whole entry, the tested form may be a part): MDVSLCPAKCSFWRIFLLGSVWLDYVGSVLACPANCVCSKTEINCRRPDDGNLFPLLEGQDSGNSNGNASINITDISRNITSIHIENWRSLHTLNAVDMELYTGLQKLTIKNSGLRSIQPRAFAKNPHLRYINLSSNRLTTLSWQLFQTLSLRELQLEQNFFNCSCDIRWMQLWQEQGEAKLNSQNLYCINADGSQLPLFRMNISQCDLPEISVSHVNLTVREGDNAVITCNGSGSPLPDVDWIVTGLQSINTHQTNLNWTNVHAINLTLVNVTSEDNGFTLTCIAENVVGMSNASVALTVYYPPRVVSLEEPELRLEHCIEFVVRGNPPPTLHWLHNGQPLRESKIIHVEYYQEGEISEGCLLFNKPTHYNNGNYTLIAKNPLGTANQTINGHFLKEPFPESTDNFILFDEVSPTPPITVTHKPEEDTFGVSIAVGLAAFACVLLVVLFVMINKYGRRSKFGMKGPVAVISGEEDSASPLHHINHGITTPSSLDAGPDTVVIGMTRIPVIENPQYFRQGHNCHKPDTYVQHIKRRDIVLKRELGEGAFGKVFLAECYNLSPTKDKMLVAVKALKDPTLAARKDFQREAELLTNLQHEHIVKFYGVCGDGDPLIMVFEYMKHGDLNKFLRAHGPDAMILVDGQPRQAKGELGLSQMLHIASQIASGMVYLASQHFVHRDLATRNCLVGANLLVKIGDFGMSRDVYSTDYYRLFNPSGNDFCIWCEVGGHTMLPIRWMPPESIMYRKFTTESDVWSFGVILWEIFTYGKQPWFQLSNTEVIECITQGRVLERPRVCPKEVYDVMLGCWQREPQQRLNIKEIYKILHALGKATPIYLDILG

IC50 (BCR-FMS BaF3 cells) [µM] | IC50 (BCR-NTRK3 BaF3 cells) [µM] | IC50 (TrkA kinase) [µM] | SMILES
< 0.1 |  | < 0.01 | Cc1cnc2[nH]cc(C(=O)c3ccc(Nc4ccc(C5CC5)nc4)nc3F)c2c1 [Compound P-3051, [6-(6-Cyclopropyl-pyridin-3-ylamino)-2-fluoro-pyridin-3-yl]-(5-methyl-1H-pyrrolo[2,3-b]pyridin-3-yl)-methanone]
< 0.1 | < 0.01 | < 0.01 | O=C(c1ccc(Nc2ccc(C3CC3)nc2)nc1F)c1c[nH]c2ncccc12 [Compound P-3052, [6-(6-Cyclopropyl-pyridin-3-ylamino)-2-fluoro-pyridin-3-yl]-(1H-pyrrolo[2,3-b]pyridin-3-yl)-methanone]
< 0.01 | < 0.01 | < 0.1 | Fc1nc(Nc2ccc(C3CC3)nc2)ccc1Cc1c[nH]c2ncccc12 [Compound P-3053, (6-Cyclopropyl-pyridin-3-yl)-[6-fluoro-5-(1H-pyrrolo[2,3-b]pyridin-3-ylmethyl)-pyridin-2-yl]-amine]
< 0.01 | < 0.01 | < 0.01 | CCOc1ccc(Nc2ccc(Cc3c[nH]c4ncnc(C5CC5)c34)c(F)n2)cn1 [Compound P-4026, [5-(4-Cyclopropyl-7H-pyrrolo[2,3-d]pyrimidin-5-ylmethyl)-6-fluoro-pyridin-2-yl]-(6-ethoxy-pyridin-3-yl)-amine]
< 0.1 | < 0.01 | < 0.01 | CCOc1ccc(Nc2ccc(C(=O)c3c[nH]c4ncnc(C5CC5)c34)c(F)n2)cn1 [Compound P-4027, (4-Cyclopropyl-7H-pyrrolo[2,3-d]pyrimidin-5-yl)-[6-(6-ethoxy-pyridin-3-ylamino)-2-fluoro-pyridin-3-yl]-methanone]
< 0.01 | < 0.01 | < 0.01 | CCc1ccc(Nc2ccc(Cc3c[nH]c4ncnc(C5CC5)c34)c(F)n2)cn1 [Compound P-4028, [5-(4-Cyclopropyl-7H-pyrrolo[2,3-d]pyrimidin-5-ylmethyl)-6-fluoro-pyridin-2-yl]-(6-ethyl-pyridin-3-yl)-amine]
< 0.1 | < 0.01 | < 0.01 | CCc1ccc(Nc2ccc(C(=O)c3c[nH]c4ncnc(C5CC5)c34)c(F)n2)cn1 [Compound P-4029, (4-Cyclopropyl-7H-pyrrolo[2,3-d]pyrimidin-5-yl)-[6-(6-ethyl-pyridin-3-ylamino)-2-fluoro-pyridin-3-yl]-methanone]
< 0.01 | < 0.1 | < 0.1 | Cc1ccc(Nc2ccc(Cc3c[nH]c4ncnc(C5CC5)c34)c(F)n2)cn1 [Compound P-4030, [5-(4-Cyclopropyl-7H-pyrrolo[2,3-d]pyrimidin-5-ylmethyl)-6-fluoro-pyridin-2-yl]-(6-methyl-pyridin-3-yl)-amine]
< 0.1 | < 0.01 | < 0.1 | Cc1ccc(Nc2ccc(C(=O)c3c[nH]c4ncnc(C5CC5)c34)c(F)n2)cn1 [Compound P-4031, (4-Cyclopropyl-7H-pyrrolo[2,3-d]pyrimidin-5-yl)-[2-fluoro-6-(6-methyl-pyridin-3-ylamino)-pyridin-3-yl]-methanone]
< 0.1 | < 0.1 | < 0.1 | CCOc1ccc(Nc2ccc(C(=O)c3c[nH]c4ncnc(C)c34)c(F)n2)cn1 [Compound P-4032, [6-(6-Ethoxy-pyridin-3-ylamino)-2-fluoro-pyridin-3-yl]-(4-methyl-7H-pyrrolo[2,3-d]pyrimidin-5-yl)-methanone]
< 0.1 | < 0.1 | < 0.1 | CCn1cc(Nc2ccc(Cc3c[nH]c4ncnc(C5CC5)c34)c(F)n2)cn1 [Compound P-4036, [5-(4-Cyclopropyl-7H-pyrrolo[2,3-d]pyrimidin-5-ylmethyl)-6-fluoro-pyridin-2-yl]-(1-ethyl-1H-pyrazol-4-yl)-amine]
< 0.1 |  | < 0.1 | CCn1cc(Nc2ccc(C(=O)c3c[nH]c4ncnc(C5CC5)c34)c(F)n2)cn1 [Compound P-4037, (4-Cyclopropyl-7H-pyrrolo[2,3-d]pyrimidin-5-yl)-[6-(1-ethyl-1H-pyrazol-4-ylamino)-2-fluoro-pyridin-3-yl]-methanone]
< 0.1 | < 0.1 | < 0.1 | Cc1cncc(Nc2ccc(Cc3c[nH]c4ncnc(C5CC5)c34)c(F)n2)c1 [Compound P-4038, [5-(4-Cyclopropyl-7H-pyrrolo[2,3-d]pyrimidin-5-ylmethyl)-6-fluoro-pyridin-2-yl]-(5-methyl-pyridin-3-yl)-amine]
< 0.1 | < 0.1 | < 0.1 | Cc1cncc(Nc2ccc(C(=O)c3c[nH]c4ncnc(C5CC5)c34)c(F)n2)c1 [Compound P-4039, (4-Cyclopropyl-7H-pyrrolo[2,3-d]pyrimidin-5-yl)-[2-fluoro-6-(5-methyl-pyridin-3-ylamino)-pyridin-3-yl]-methanone]

Second part, the compound before the results:

SMILES | IC50 (BCR-FMS BaF3 cells) [µM] | IC50 (BCR-NTRK3 BaF3 cells) [µM] | IC50 (TrkA kinase) [µM]
Clc1cnc2[nH]cc(Cc3cnc(NC4CCCCC4)nc3)c2c1 [Compound P-3001, [5-(5-chloro-1H-pyrrolo[2,3-b]pyridin-3-ylmethyl)-pyrimidin-2-yl]-cyclohexyl-amine] | < 0.1 | > 10 | 
Clc1cnc2[nH]cc(Cc3cnc(NC4CCCC4)nc3)c2c1 [Compound P-3003, [5-(5-Chloro-1H-pyrrolo[2,3-b]pyridin-3-ylmethyl)-pyrimidin-2-yl]-cyclopentyl-amine] | < 1 |  | 
FC1(F)CCC(Nc2ncc(Cc3c[nH]c4ncc(Cl)cc34)cn2)CC1 [Compound P-3004] | < 0.1 | < 10 | 
Clc1cnc2[nH]cc(Cc3cnc(NC4CC4)nc3)c2c1 [Compound P-3005, [5-(5-Chloro-1H-pyrrolo[2,3-b]pyridin-3-ylmethyl)-pyrimidin-2-yl]-cyclopropyl-amine] | < 1 | > 10 | 
Clc1cnc2[nH]cc(Cc3cnc(NC4CCCCCC4)nc3)c2c1 [Compound P-3006, [5-(5-Chloro-1H-pyrrolo[2,3-b]pyridin-3-ylmethyl)-pyrimidin-2-yl]-cycloheptyl-amine] | < 1 | > 10 | 
COc1ccccc1Nc1ncc(Cc2c[nH]c3ncc(Cl)cc23)cn1 [Compound P-3016, [5-(5-Chloro-1H-pyrrolo[2,3-b]pyridin-3-ylmethyl)-pyrimidin-2-yl]-(2-methoxy-phenyl)-amine] | < 1 | > 10 | > 1
Fc1cccc(Nc2ncc(Cc3c[nH]c4ncc(Cl)cc34)cn2)c1 [Compound P-3017, [5-(5-Chloro-1H-pyrrolo[2,3-b]pyridin-3-ylmethyl)-pyrimidin-2-yl]-(3-fluoro-phenyl)-amine] | < 1 | > 10 | > 1
Cc1cnc2[nH]cc(Cc3cnc(Nc4ccc(C(F)(F)F)nc4)nc3)c2c1 [Compound P-3018, [5-(5-Methyl-1H-pyrrolo[2,3-b]pyridin-3-ylmethyl)-pyrimidin-2-yl]-(6-trifluoromethyl-pyridin-3-yl)-amine] | < 0.1 | < 0.1 | < 1
COc1cc(Nc2ncc(Cc3c[nH]c4ncc(C)cc34)cn2)ccc1F [Compound P-3022, (4-Fluoro-3-methoxy-phenyl)-[5-(5-methyl-1H-pyrrolo[2,3-b]pyridin-3-ylmethyl)-pyrimidin-2-yl]-amine] | < 0.1 | < 1 | < 1
COc1ccc(Nc2ncc(Cc3c[nH]c4ncc(C)cc34)cn2)cc1F [Compound P-3023, (3-Fluoro-4-methoxy-phenyl)-[5-(5-methyl-1H-pyrrolo[2,3-b]pyridin-3-ylmethyl)-pyrimidin-2-yl]-amine] | < 0.1 | < 1 | 
CCc1ccc(Nc2ccc(Cc3c[nH]c4ncc(C)cc34)c(F)n2)cn1 [Compound P-3048, (6-Ethyl-pyridin-3-yl)-[6-fluoro-5-(5-methyl-1H-pyrrolo[2,3-b]pyridin-3-ylmethyl)-pyridin-2-yl]-amine] | < 0.01 |  | < 0.01
CCc1ccc(Nc2ccc(C(=O)c3c[nH]c4ncc(C)cc34)c(F)n2)cn1 [Compound P-3049, [6-(6-Ethyl-pyridin-3-ylamino)-2-fluoro-pyridin-3-yl]-(5-methyl-1H-pyrrolo[2,3-b]pyridin-3-yl)-methanone] | < 0.01 |  | < 0.01
Cc1cnc2[nH]cc(Cc3ccc(Nc4ccc(C5CC5)nc4)nc3F)c2c1 [Compound P-3050, (6-Cyclopropyl-pyridin-3-yl)-[6-fluoro-5-(5-methyl-1H-pyrrolo[2,3-b]pyridin-3-ylmethyl)-pyridin-2-yl]-amine] | < 0.1 |  | < 0.1
